Results on nine molecules are retold here after PubChem BioAssay AID1919007 (Molecular Pharmacology Branch, DTP, NCI, 2023).

Values joined by “and” are separate entries in the source; they are usually repeats but may differ in a detail not shown here. Equal values may be shown once.

This assay relates to A498 complex spheroids with HUVEC/MSC, growth. Put plainly: Anticancer human tumor A498 cell line growth inhibition [AhR].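 On all read-outs here: seven day exposure starting three days after spheroid seeding.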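 On viability, T/C: luminescence signal used as a surrogate for viable cells; luminescence viability scaled so 100% equals DMSO vehicle wells.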 The conditions noted are these: for viability, T/C: stronger effect = lower value; for IC50: curve of compound. The text has this:
Multicellular complex tumor spheroid response to aryl hydrocarbon receptor antagonists in combination with a variety of drugs and investigational agents in selected tumor cell lines
The current study was undertaken to assess response to aryl hydrocarbon receptor antagonists in combination with standard-of-care drugs and investigational agents in solid tumor complex spheroid models. Complex spheroids include a stromal component modeled by human endothelial cells (HUVEC) and fibroblasts modeled by human mesenchymal stem cells (MSCs). The concentration ranges selected for each drug and investigational agent were based upon clinically achievable concentrations if the clinical Cmax of the agent was known.
Compounds. The drugs and investigational agents: BAY 2416964 (NSC825713), GNF351 (NSC835774), CH-223191 (NSC835775), CPI-455 (NSC825282), aza-TdCyd (NSC777586), decitabine (NSC127716), belinostat (NSC758774), entinostat (NSC756642), pevonedistat (NSC761192), tazemetostat (NSC777109), talazoparib (NSC765396), olaparib (NSC753686), selinexor (NSC780203), nedisertib (M3814, NSC802822), bortezomib (NSC756655), venetoclax (NSC766270), doxorubicin (NSC123127), elimusertib (BAY189344, NSC800525), ceralasertib (AZD6738, NSC777638), TAK-243 (NSC785004), alisertib (NSC759677), etoposide (NSC141540), topotecan (NSC609699), eribulin (NSC707389), gemcitabine (NSC613327), carboplatin (NSC241240), cisplatin (NSC119875), and SN-38 (NSC673596) were obtained from the National Cancer Institute (NCI) Developmental Therapeutics Program Chemical Repository (32). The FDA-approved anticancer drug set is available from the Developmental Therapeutics Program at https://dtp.cancer.gov/organization/dscb/obtaining/available plates.htm. […] The stock solutions were prepared in dimethyl sulfoxide (DMSO, Sigma-Aldrich, St. Louis, MO, cat. D2650), except for the platinum compounds which were prepared in saline (Quality Biological, Gaithersburg, MD, cat. 114-055-101), at 800-fold the tested concentration and stored at -70 degrees C prior to their use. All drugs and investigational agents were tested over a range starting from a high concentration at or near the clinical Cmax and decreasing in half-log increments. If the clinical Cmax for an agent had not been determined, the highest concentration tested was 10 microM (Table 1).
Cell Culture. All cells were maintained in an incubator at 37 degrees C and 5% CO2 with 95% humidity. The PDC lines were cultured according to standard operating procedures established by the NCI PDMR (https://pdmr.cancer.gov). Briefly, all PDCs were thawed and cultured in Matrigel-coated flasks prepared with a working solution of 1X Ham's F-12 nutrient mix, without supplementation (Invitrogen, Waltham, MA, cat. 11765054), 100 U/mL penicillin-streptomycin (Invitrogen, cat. 15140122), and 2.5% Matrigel (Corning Inc., Corning, NY, cat. 354248) for the first three passages. All PDCs were cultured in complete DMEM/F-12 media containing advanced DMEM/F-12 (Invitrogen, cat. 12634028), 4.9% defined fetal bovine serum, heat inactivated (HyClone Laboratories Inc., Logan, UT, cat. SH30070.03HI), 389 ng/mL hydrocortisone (Sigma-Aldrich, cat. H4001), 9.7 ng/mL human EGF recombinant protein (Invitrogen, cat. PHG0313), 23.4 microg/mL adenine (Sigma-Aldrich, cat. A2786), 97.3 U/mL penicillin-streptomycin (Invitrogen, cat. 15140122), 1.9 mM L-glutamine (Invitrogen, cat. 25030081), and 9.7 microM Y-27632 dihydrochloride (Tocris Bioscience, Bristol, United Kingdom, cat. 1254). The PDCs were cultured in complete DMEM/F12 media without 10 microM Y-27632 dihydrochloride for at least two passages prior to the screen. The established cell lines NCI-H1341 and […] were cultured in DMEM/F-12, HEPES (Invitrogen, cat. 11330032), 5% defined fetal bovine serum (HyClone Laboratories Inc., cat. SH30070.03), ITS premix universal culture supplement [insulin (5 microg/mL), transferrin (5 microg/mL), and selenious acid (5 ng/mL)] […]

Turning to `Cn1ncnc1C1c2n[nH]c(=O)c3cc(F)cc(c23)NC1c1ccc(F)cc1` (stereo not drawn), the IC50 was more than 100 nM. The viability, T/C (compound 0.000316 µM) is 105% and 97.2% and 110%. For the same molecule, the viability, T/C (compound 0.001 µM) is 117% and 105% and 114%. In addition, the viability, T/C (compound 0.00316 µM) was 109% and 102% and 103%. For the same molecule, the viability, T/C (compound 0.01 µM) was 108% and 101% and 100%. For the setting “compound 0.0316 µM”, the viability, T/C was 112% and 106% and 103%. For the setting “compound 0.1 µM”, the viability, T/C was 107% and 98.3% and 85.8%.
Take `NS(=O)(=O)OCC1CC(n2ccc3c(NC4CCc5ccccc54)ncnc32)CC1O` (stereo not drawn): the IC50 was 474 nM and 421 nM and 239 nM. For the same molecule, where the note is “compound 0.0316 µM”, the viability, T/C was 96.3% and 93.7% and 99.8%. Besides, under “compound 0.1 µM”, the viability, T/C is 93.4% and 87.1% and 85.3%. Under “compound 0.316 µM”, the viability, T/C is 56.3% and 53.1% and 37.4%. For the same molecule, the viability, T/C (compound 1 µM) was 34.4% and 34.5% and 28.6%. Besides, under “compound 3.16 µM”, the viability, T/C is 23.7% and 26.2% and 21.3%. Where the note is “compound 10 µM”, the viability, T/C was 16.6% and 20% and 16.1%.
Consider `Nc1ccccc1NC(=O)c1ccc(CNC(=O)OCc2cccnc2)cc1`, for which the IC50 was 1430 nM and 1740 nM and 1090 nM. In addition, where the note is “compound 0.0316 µM”, the viability, T/C was 83.7% and 98.2% and 88.8%. Besides, the viability, T/C (compound 0.1 µM) is 83.4% and 95.8% and 93.6%. The viability, T/C (compound 0.316 µM) is 88.2% and 84.4% and 77.7%. Further, the viability, T/C (compound 1 µM) is 61.2% and 70.2% and 50.5%. In addition, the viability, T/C (compound 3.16 µM) is 21.5% and 29.6% and 23.1%. Also, the viability, T/C (compound 10 µM) was 2.22% and 2% and 2.21%.
With `Nc1ccn(C2OC(CO)C(O)C2(F)F)c(=O)n1` (stereo not drawn), the IC50 is less than 31.6 nM. Besides, the viability, T/C (compound 0.0316 µM) is 30.9% and 36.6% and 26.1%. The viability, T/C (compound 0.1 µM) is 35.4% and 37.9% and 25.6%. Also, under “compound 0.316 µM”, the viability, T/C was 50.1% and 45.6% and 30.7%. Besides, the viability, T/C (compound 1 µM) was 43% and 49.6% and 32.6%. Also, the viability, T/C (compound 3.16 µM) was 40.7% and 51.3% and 33%. In addition, for the setting “compound 10 µM”, the viability, T/C was 42.1% (2×) and 29.6%.
Turning to `Nc1ncn(C2CC(O)C(CO)O2)c(=O)n1` (stereo not drawn), the IC50 was more than 1000 nM. The viability, T/C (compound 0.00316 µM) was 95.4% and 108% and 105%. In addition, where the note is “compound 0.01 µM”, the viability, T/C was 101% and 108% and 107%. In addition, the viability, T/C (compound 0.0316 µM) was 94% and 91.7% and 104%. The viability, T/C (compound 0.1 µM) was 87.1% and 96.7% and 97.3%. Besides, the viability, T/C (compound 0.316 µM) was 97.1% and 81.1% and 97.3%. For the same molecule, the viability, T/C (compound 1 µM) was 72.5% and 71.4% and 83.5%.
Regarding `Nc1ncn(C2CC(O)C(CO)S2)c(=O)n1` (stereo not drawn), the IC50 was more than 300 nM. Further, the viability, T/C (compound 0.000949 µM) was 100% and 102% and 109%. For the same molecule, where the note is “compound 0.003 µM”, the viability, T/C is 99.7% and 106% and 114%. For the setting “compound 0.00949 µM”, the viability, T/C was 94.9% and 101% and 108%. Further, the viability, T/C (compound 0.03 µM) is 97.8% and 105% and 96%. The viability, T/C (compound 0.0949 µM) is 79.2% and 95.2% and 85%. In addition, the viability, T/C (compound 0.3 µM) was 81% and 89.7% and 68.3%.
Regarding `O=C(C=Cc1cccc(S(=O)(=O)Nc2ccccc2)c1)NO`, the IC50 was 1870 nM and 3100 nM and 1180 nM. Where the note is “compound 0.0316 µM”, the viability, T/C was 96.9% and 99.7% and 91.8%. Besides, for the setting “compound 0.1 µM”, the viability, T/C was 97.1% and 90.4% and 87.2%. For the same molecule, for the setting “compound 0.316 µM”, the viability, T/C was 77.8% and 90.1% and 67.2%. The viability, T/C (compound 1 µM) was 56.2% and 65.4% and 52.6%. Besides, the viability, T/C (compound 3.16 µM) is 45.1% and 51.9% and 33.4%. In addition, where the note is “compound 10 µM”, the viability, T/C was 16.7% and 20.2% and 6.75%.
Take `O=C(C=Cn1cnc(-c2cc(C(F)(F)F)cc(C(F)(F)F)c2)n1)NNc1cnccn1`: the IC50 was 99.9 nM and 111 nM and 72.8 nM. Moreover, the viability, T/C (compound 0.00949 µM) is 99.2% and 101% and 90.7%. For the same molecule, under “compound 0.03 µM”, the viability, T/C was 94.7% and 85.9% and 72.4%. In addition, where the note is “compound 0.0949 µM”, the viability, T/C is 49.8% and 49% and 42.5%. In addition, the viability, T/C (compound 0.3 µM) is 34.6% and 34.1% and 25.4%. Moreover, the viability, T/C (compound 0.949 µM) was 26.4% and 25% and 20.6%. For the setting “compound 3 µM”, the viability, T/C was 23.9% and 17% and 14.4%.
On to `O=C(c1cc(Cc2n[nH]c(=O)c3ccccc23)ccc1F)N1CCN(C(=O)C2CC2)CC1`, for which the IC50 is more than 10000 nM. Further, for the setting “compound 0.0316 µM”, the viability, T/C is 100% and 101% (2×). Further, the viability, T/C (compound 0.1 µM) is 103% and 100% and 104%. Under “compound 0.316 µM”, the viability, T/C was 99.4% and 99.2% and 99.5%. Where the note is “compound 1 µM”, the viability, T/C is 108% and 99.4% and 100%. For the setting “compound 3.16 µM”, the viability, T/C was 106% and 98.4% and 101%. The viability, T/C (compound 10 µM) was 94% and 92.4% and 92.1%.

What is called viability, T/C is the ratio of treated to control. Usually IC50 stands for the midpoint of a concentration-inhibition curve.
